Where two headings read alike, the source gives them in different places.
Assays:
[1] = Solubility and stability of the mesylate salt of Compound 54 in water; format: physicochemical
Method: Ten Compound 54 salt forms (L-tartartric, succinic, maleic, L-malic, D-malic, citric, hydrochloric, phosphoric, nitric, methane-sulfonic acids) were evaluated to identify the best salt form to selectively crystallize out the cis-diastereomer from cis:trans mixtures following the prodrug coupling procedure. Solubility and stability of the mesylate salt of Compound 54 were analyzed in water.

[2] = 30 mg/kg PMEA equivalents, in water, normal male rats
Method: Compound 56 was solubilized in water for intravenous and oral administration. […] Liver organ concentrations of PMEApp were determined as indicated in Example I.

human liver microsomes = assay: Cis versus trans prodrug activation in human liver microsomes; format: in vitro ADME; conditions: 100 μM prodrug, 2 mg/mL human liver microsomes; for Activation Rate: 5 minutes, 37° C.
Excerpt: The activation rates of cis (Compound 56, lot #20010093) and trans (9-{2-[2,4-trans-(S)-(+)-4-(3-chlorophenyl)-2-oxo-1,3,2-dioxaphosphorinan-2-yl]methoxyethyl} adenine, (lot 20010195) PMEA prodrugs was compared in order to establish which prodrug diastereomer is activated the most efficiently in human liver microsomes.
Human liver microsomes (mixed pool) were purchased from In Vitro Technologies (Lot RQX). […] Reactions were quenched with 60% methanol.

[3] = test system: freshly isolated rat hepatocytes; assay: PMEApp accumulation in rat hepatocytes following incubation with Compound 56 and PMEA (25 μM); format: cell-based; conditions: 0–4 h, rat hepatocytes 20 mg/ml
Method: Hepatocyte pellets were immediately sonicated in 300 μl of ice-cold acetonitrile followed by the addition of 200 μl of water. Hepatocyte extracts were centrifuged for 20 minutes in an Eppendorf centrifuge at 4° C. and supernatants from the extracts were transferred to a fresh tube. Hepatocyte extract supernatants were evaporated to dryness under vacuum and then resuspended in 200 μl of water. PMEApp concentrations were quantified by LC-MS/MS (negative-ion mode) based on authentic PMEApp standards spiked into hepatocyte extracts. Ten microliter samples were loaded onto a Phenomenex Luna […] C8 column (50×2 mm) in 20 mM N-N-dimethylhexylamine, 10 mM propionic acid and eluted with a gradient of methanol from 20–64% over 5.5 minutes. An API 2000 triple quadrupole mass spectrometer fitted with a pneumatically-assisted electrospray interface was used to quantify the negative ion (PO3^−) using a Multiple Reaction Monitoring (MRM) technique.

[4] = cited from earlier work
[5] = oral administration, species not stated; cited from earlier work
[6] = cited from earlier work; remark: listed apart in the source
[7] = humans; i.v. dose; cited from earlier work
[8] = PMEApp accumulation in liver organ following oral administration to normal fasted rats; format: in vivo, rat; conditions: 30 mg/kg PMEA equivalents p.o.
Method: PMEA prodrugs were tested in vivo to identify prodrugs with suitable oral bioavailability and favorable intrahepatic activation rates.
Following oral administration of 30-mg/kg prodrug (PMEA equivalents) to normal, fasted rats, liver organ samples were freeze-clamped at 8 hr. […] The retention time of PMEApp was 18.6 minutes.

[9] = test system: freshly isolated rat hepatocytes; conditions: 250 μM prodrug
Method: PMEA prodrugs were tested.
Hepatocytes were prepared from fed Sprague-Dawley rats (250–300 g) according to the procedure of Berry and Friend (Berry, M. N. Friend, D. S., J. Cell Biol. 43:506–520 (1969)) as modified by Groen (Groen, A. K. et al., Eur. J. Biochem 122:87–93 (1982)). Hepatocytes (60 mg/ml wet weight, >85% trypan blue viability) were incubated in 2 ml of krebs-bicarbonate buffer containing 20 mM glucose, and 1 mg/ml BSA for 4 hours in the presence of 250 μM PMEA prodrugs (from 25 mM stock solutions of prodrugs in methanol). At appropriate time points throughout the incubation (0, 1, 2, 4 hours), 400-μl aliquots of the cell suspension were taken and centrifuged through a silicon/mineral oil layer into 10% perchloric acid to extract intracellular nucleotides. The acidic cell extracts were neutralized with 0.3 volumes of 3M KOH/3M […] before evaluating PMEApp levels by ion exchange HPLC (Hewlett Packard 1050) using a Whatman Partisphere SAX (5 μm, 4.6×125 mm) column. Samples were loaded onto the column in 0.3M-ammonium phosphate buffer pH 3.5 and eluted from the column with a gradient to 0.8 M ammonium phosphate pH 3.5.

[10] = test system: liver microsomes isolated from rats induced with dexamethasone; assay: In vitro activation of PMEA prodrug analogues to PMEA by rat liver microsomes
Method: PMEA prodrug analogues were tested for activation to PMEA in reactions catalyzed by the microsomal fraction of rat liver.
Prodrugs (25 and 250 μM) were tested for activation by liver microsomes isolated from rats induced with dexamethasone to enhance CYP3A4 activity (Human Biologics Inc., Phoenix Ariz.). Reactions were conducted in 0.1 M KH2PO4, pH 7.4, in the presence of 2 mM NADPH and liver microsomes (1 mg/mL). Reaction mixtures were incubated for 5 minutes in an Eppendorf Thermomixer 5436 (37° C., speed 6). Reactions were terminated by the addition of 1.5 volumes of methanol. The resulting extracts were clarified by centrifugation at 14,000 rpm in an Eppendorf microfuge (20 minutes). The supernatants (200 μL) were evaporated under vacuum and heat to dryness before resuspending in 80 μL of buffer A (see below) for PMEA analysis. Spiked standards of 9-[2-(phosophonomethoxy)ethyl]adenine, (PMEA, lot 980397, Metabasis Therapeutics) were prepared in the same reaction mixture and processed in an identical fashion. After resuspension, samples were analyzed by reverse phase HPLC (Altima C-18 column) with use of an ion-pairing buffer (Buffer A) consisting of 10 mM ammonium phosphate, 2.5 mM octyltriethylammonium phosphate, pH 5.5. Samples were loaded in Buffer A and eluted with a methanol gradient from 40% to 80% over 20 minutes. Detection was at 265 nm.

[11] = 30 mg/kg PMEA equivalents p.o., rats
Method: Intact prodrug and the metabolite 9-[2-(phosophonomethoxy)ethyl]adenine (PMEA) and the respective mono-acids were measured in the plasma at 0 (predose), 0.33, 1, 3, 5, 8, and 12 hrs post dose by HPLC using fluorescence detection. The pharmacokinetic parameters were calculated based on noncompartmental analysis of the concentration-time profile.

[12] = Tissue distribution of PMEA equivalents after oral tritiated Compound 4 and bis POM PMEA in rats; conditions: p.o.
Method: Total tritium counts were analyzed in solubilized samples of liver organ, kidney, plasma, urine, red blood cells, small intestine, as well as small intestine contents and feces obtained at various time points over 24 hours. Liver organ specificity was assessed by comparison of the temporal profiles of total tritium in liver organ versus kidney, small intestine, plasma, and red blood cells. Metabolite profiles in perchloric acid extracts of liver organ, kidney, small intestine, feces and urine were analyzed by HPLC.

[13] = cited from earlier work; remark: listed apart in the source
[14] = cited from earlier work; remark: listed apart in the source
[15] = Plasma and urine PMEA following oral Compound 4 and bis POM PMEA in rats; format: in vivo, rat; conditions: 30 mg/kg PMEA equivalents p.o.
Method: PMEA levels (0–12 h) were quantified in plasma by fluorescence HPLC following chloroacetaldehyde derivatization. PMEA levels in urine were quantified 48 hours after treatment.
Plasma drug levels: PMEA was determined in plasma by a modification of the procedure described in the literature (Shaw J P, Louie M S, Krishnamurthy V V, Arimilli M N, Jones R J, Bidgood A M, Lee W A, & Cundy K C, Drug Metabolism and Disposition, 25:362–366 (1997)). Plasma (100 μL) samples were extracted with 2 volumes of 0.1% TFA in acetonitrile. Following centrifugation to remove the precipitate, the supernatant was evaporated to dryness. The dried plasma was reconstituted with 200 μL of the derivatization cocktail consisting of 0.34% chloroacetaldehyde in 100 mM sodium acetate pH 4.5 and incubated at 95° C. for 40 min. The samples were evaporated to dryness and reconstituted with mobile phase for analysis by HPLC. The derivatized PMEA was analyzed by an HPLC system (Hewlett Packard 1090) consisting of a Beckman Ultrasphere ODS 4.6×150 mm (5 μm) column developed with a 20-min gradient of 0–30% acetonitrile in 20 mM potassium phosphate pH 6.2. Fluorescence was monitored at an excitation and emission wavelength of 240 and 420 nm, respectively. The column temperature was 40° C. and the flow rate was 1.5 mL/min. The derivatized PMEA was detected and quantified by comparison to an authentic standard prepared in plasma and eluted at approximately 6 minutes. The limit of quantitation of PMEA, was 0.25 μg/mL.
Urinary excretion studies: The percent excretion of PMEA in urine was assessed by a modification of a previously described procedure (Russell J W, Marrero D, Whiterock V J, & Klunk L J, J Chromatog, 572:321–326 (1991)). Aliquots (0.25–0.5 mL) of urine samples and spiked standards were incubated with an equal volume of 17% (v/v) of 50% chloroacetaldehyde in 100 mM sodium acetate pH 4.5 at 50° C. for 4 hrs. Following centrifugation, the supernatant was analyzed by the HPLC method described in the previous section.

[16] = dog, after bis POM PMEA, Cundy et al. 1997; cited from earlier work
[17] = 25 μM prodrug, 1 mg/mL microsomes, 2 mM NADPH, 5 minutes, 37° C., PMEA formation
[18] = 250 μM prodrug, 1 mg/mL microsomes, 2 mM NADPH, 5 minutes, 37° C., PMEA formation

SMILES: CS(=O)(=O)O.Nc1ncnc2c1ncn2CCOCP1(=O)OCC[C@@H](c2cccc(Cl)c2)O1 (stereo in doubt) [Compound 56, 9-{2-[2,4-cis-(S)-(+)-4-(3′-Chlorophenyl)-2-oxo-1,3,2-dioxaphosphorinan-2-yl]metboxyethyl}adenine Methanesulfonate]
- Decomposition of dosing solutions ([1]; 30 and 300 mg/ml in water, 5 days, room temperature): < 10%
- Solubility in water ([1]; water): > 300 mg/mL
- OBAV (ratio of AUC of liver organ PMEApp oral vs i.v.) [2]: 42%
- Activation Rate (human liver microsomes): 0.45 ± 0.01 nmol/mg/min

SMILES: Nc1ncnc2c1ncn2CCOCP(=O)(O)O [PMEA, 9-(2-phosphonylmethoxyethyl)adenine]
- AUC0-4h PMEApp levels in hepatocytes [3]: 84 nmol·h/g
- Oral bioavailability in humans [4]: < 12%
- Oral bioavailability [5]: < 10%
- Oral bioavailability in monkeys [6]: < 1%
- Dose excreted renally / renally cleared [7]: 98%

SMILES: Nc1ncnc2c1ncn2CCOCP1(=O)OCCC(c2cc(F)cc(F)c2)O1 (mixture of isomers) [Compound 10]
- Rats, PMEApp levels in liver organ @ 8 hr., 30 mg/kg, p.o. [8]: 2.2 nmol/g

SMILES: Nc1ncnc2c1ncn2CCOCP1(=O)OCCC(c2ccncc2)O1 (mixture of isomers) [Compound 2]
- Rat Hepatocytes, PMEApp formation, 250 μM, AUC 0–4 h [9]: 106.8 nmol·h/g

SMILES: Nc1ncnc2c1ncn2CCOCP1(=O)OCCC(c2cc(Cl)cc(Cl)c2)O1 (mixture of isomers) [Compound 3]
- Activation Rate, Dex. Rat Liver Microsomes, 25 μM [10]: 2.2 nmol/min/mg
- Activation Rate, Dex. Rat Liver Microsomes, 250 μM [10]: 1.9 nmol/min/mg

SMILES: Cc1ccc(C2CCOP(=O)(COCCn3cnc4c(N)ncnc43)O2)cn1 (mixture of isomers) [Compound 18]
- Activation Rate, Dex. Rat Liver Microsomes, 25 μM [10, 17]: <0.5 nmol/min/mg
- Activation Rate, Dex. Rat Liver Microsomes, 250 μM [10, 18]: 0.6 nmol/min/mg

SMILES: Nc1ncnc2c1ncn2CCOCP1(=O)OCCC(c2ccccc2Br)O1 (centres unmarked) [Compound 6]
- Rats, PMEApp levels in liver organ @ 8 hr., 30 mg/kg, p.o. [8]: 7.1 nmol/g

SMILES: CC(C)(C)C(=O)OCOP(=O)(COCCn1cnc2c(N)ncnc21)OCOC(=O)C(C)(C)C [bis POM PMEA]
- Intact prodrug in plasma [11]: not detected
- Oral bioavailability in humans [4]: 41%
- Oral bioavailability in monkeys [6]: 25%
- Dose excreted in feces in the form of PMEA [12]: 43%
- Oral bioavailability in rats [13]: 38%
- Half-life in human serum [14]: < 5 min
- AUC0-12h of PMEA in plasma ([15]; fasted rats): 21.3 µM·h
- Urinary levels of PMEA ([15]; rats, urine 48 hours after treatment): 20.6 % dose
- PMEA AUC (dose-normalized plasma), literature [16]: 10.9

SMILES: Nc1ncnc2c1ncn2CCOCP1(=O)OCCC(c2cccc(Br)c2)O1 (mixture of isomers) [Compound 7]
- Rats, PMEApp levels in liver organ @ 8 hr., 30 mg/kg, p.o. [8]: 2.2 nmol/g

SMILES: Nc1ncnc2c1ncn2CCOCP1(=O)OCCC(c2ccc(Br)c(F)c2)O1 (mixture of isomers) [Compound 5]
- Rats, PMEApp levels in liver organ @ 8 hr., 30 mg/kg, p.o. [8]: 2.6 nmol/g
- Activation Rate, Dex. Rat Liver Microsomes, 25 μM [10, 17]: 1.3 nmol/min/mg
- Activation Rate, Dex. Rat Liver Microsomes, 250 μM [10, 18]: 1.5 nmol/min/mg

SMILES: Nc1ncnc2c1ncn2CCOCP1(=O)OCCC(c2ccccc2)O1 (mixture of isomers) [Compound 1]
- Rats, PMEApp levels in liver organ @ 8 hr., 30 mg/kg, p.o. [8]: 0.6 nmol/g

SMILES: Nc1ncnc2c1ncn2CCOCP1(=O)OCC[C@@H](c2cccc(Cl)c2)O1 (stereo in doubt) [trans-, 9-{2-[2,4-trans-(S)-(+)-4-(3-chlorophenyl)-2-oxo-1,3,2-dioxaphosphorinan-2-yl]methoxyethyl} adenine]
- Activation (below measureable detection limit, text) (human liver microsomes): < 0.05 nmol/min/mg
- Activation Rate (human liver microsomes): ≦0.05 nmol/mg/min.

Source: patent US7214668B2, “Phosphonic acid based prodrugs of PMEA and its analogues” (Metabasis Therapeutics, Inc., priority 2002, dated 2007)
